# Experimental data from patent publication US6541486B1, “Bis-benzimidazole compounds and analogs thereof for inhibiting cell death” (Elan Pharma International Ltd., priority 1999, dated 2003).
# Tests used:
# [1] = system: OGD cells (retinal ganglion cells); assay: Increase in survival of OGD cells at fixed concentrations (similar assay); type: cell-based, rat; set-up: key: +: up to 50% increase; ++: 50%-100% increase; +++: >100% increase; —: negligible or no increase
# [2] = system: Oxygen/Glucose Deprived RGCs (retinal ganglion cells); assay: Protection of oxygen/glucose deprived (OGD) retinal ganglion cells, EC50; conditions: overall judgement
# Experimental: Each compound was added to control cells and to cells deprived of oxygen and glucose for the time period from 30 minutes prior to OGD, during OGD, and for 24 and 48 hours after OGD.
# RGCs from postnatal day 8 (P8) Sprague-Dawley rats were purified as previously described (Barres et al., 1988; Meyer-Franke et al., 1995). Purified retinal ganglion cells were plated onto tissue culture plastic precoated with poly-D-lysine and merosin, and cultured in serum-free Neurobasal medium (Gibco) containing various supplements.
# Approximately 5,000 purified RGCs were cultured in 96-well plates (Falcon), precoated with poly-D-lysine (PDL, 70 kD, 10 mg/ml; Sigma) and merosin (2 mg/ml; Gibco). The RGCs were cultured in serum-free Neurobasal medium (Brewer et al., 1993; Gibco) containing Sato-Bottenstein and B27 (Gibco) supplement, insulin (Sigma, 5 mg/ml), brain-derived neurotrophic factor (BDNF, 25 ng/ml; Preprotech), ciliary neurotrophic factor (CNTF, 20 ng/ml; Preprotech) and forskolin (10 mM, Sigma). The percentage of surviving cells was assessed at 3, 7, and 14 days by the MTT assay.
# Retinal ganglion cells were grown in 96-well plates for 5 days in serum-free medium as described above. On the sixth day cells were washed three times in a salt solution, e.g. Earle's balanced salt solution (EBSS, Gibco), containing glucose for control cells, and lacking glucose for test cells (oxygen/glucose-deprived cells). Control cells were further incubated in a 5% CO2 incubator while OGD cells were deprived of oxygen in an anaerobic chamber (for 3 hours). Test compounds were added to control cells and OGD cells for the time period from 30 minutes prior to OGD, during OGD, and for 24 and 48 hours after OGD.
# After 3 hours OGD, control and test cells were transferred to growth medium with glucose and cultured an additional 48 hours in a 5% CO2 incubator, followed by a determination of cell viability using MTT, propidium iodide and annexin assays.
# For the cell viability assay, MTT was added to culture and incubated at 37° C. for 1 hr. […] Viable and dead cells are counted by bright field microscopy at various times, e.g. 24, 48, or 72 hours after oxygen/glucose and/or growth factor deprivation. All values are reported as the mean (average) +/− the standard error of the mean (SEM) for at least three replicate cultures.
smiles,measurement,setting,value
"O=[N+]([O-])c1cccc2[nH]c(Cc3nc4ccccc4[nH]3)nc12 [SNX 900, 2-(1H-benzimidazol-2-ylmethyl)4-nitro-1H-benzimidazole]",Percent Increase in Survival over OGD Control Cells,[1]; Concn 0.01 μM,++ (50%-100% increase)
same,Percent Increase in Survival over OGD Control Cells,[1]; Concn 0.1 μM,+++ (>100% increase)
same,Percent Increase in Survival over OGD Control Cells,[1]; Concn 10 μM,+ (up to 50% increase)
same,Percent Increase in Survival over OGD Control Cells,[1]; Concn .1 μM,++ (50%-100% increase)
same,"Effectiveness in protecting OGD RGCs (in words, from Tables 5 and 6)",[2],more effective overall than the unsubstituted compound
"Cc1nc(-c2nc(C)c(C)[nH]2)[nH]c1C [SNX 939, 2,2′-bis(4,5-dimethylimidazole)]","Effectiveness in protecting OGD RGCs (in words, from Tables 5 and 6)",[2],very effective
"CN1CC[N+](C)=C1Cc1nc2ccccc2[nH]1 [SNX 980, 2-(1,3-Dimethyl-4,5-dihydro-1H-imidazol-2-ylmethyl)-1H-benzimidazole]","Effectiveness in protecting OGD RGCs (in words, from Tables 5 and 6)",[2],very effective
"Oc1cccc2[nH]c(Cc3nc4c(O)cccc4[nH]3)nc12 [SNX 909, 4,4′-dihydroxyl*]",Percent Increase in Survival over OGD Control Cells,[1]; Concn 0.01 μM,+ (up to 50% increase)
same,Percent Increase in Survival over OGD Control Cells,[1]; Concn 0.1 μM,++ (50%-100% increase)
same,Percent Increase in Survival over OGD Control Cells,[1]; Concn 10 μM,+ (up to 50% increase)
same,Percent Increase in Survival over OGD Control Cells,[1]; Concn .1 μM,+++ (>100% increase)
same,"Effectiveness in protecting OGD RGCs (in words, from Tables 5 and 6)",[2],more effective overall than the unsubstituted compound
"c1ccc(CN2CCN=C2Cc2nc3ccccc3[nH]2)cc1 [SNX 979, 2-(1-benzyl-4,5-dihydroimidazol-2-yl)methyl benzimidazole]","Effectiveness in protecting OGD RGCs (in words, from Tables 5 and 6)",[2],very effective
"Fc1cccc2[nH]c(Cc3nc4c(F)cccc4[nH]3)nc12 [SNX 930, 4,4′-difluoro*]",Percent Increase in Survival over OGD Control Cells,[1]; Concn 0.001 μM,+ (up to 50% increase)
same,Percent Increase in Survival over OGD Control Cells,[1]; Concn 0.01 μM,+++ (>100% increase)
same,Percent Increase in Survival over OGD Control Cells,[1]; Concn 0.1 μM,+ (up to 50% increase)
same,Percent Increase in Survival over OGD Control Cells,[1]; Concn 1 μM,++ (50%-100% increase)
same,Percent Increase in Survival over OGD Control Cells,[1]; Concn 10 μM,++ (50%-100% increase)
same,"Effectiveness in protecting OGD RGCs (in words, from Tables 5 and 6)",[2],more effective overall than the unsubstituted compound
"Nc1cccc2[nH]c(Cc3nc4c(N)cccc4[nH]3)nc12 [SNX 903, 4,4′-diamino*]",Percent Increase in Survival over OGD Control Cells,[1]; Concn 0.01 μM,+++ (>100% increase)
same,Percent Increase in Survival over OGD Control Cells,[1]; Concn 0.1 μM,+++ (>100% increase)
same,Percent Increase in Survival over OGD Control Cells,[1]; Concn 10 μM,++ (50%-100% increase)
same,Percent Increase in Survival over OGD Control Cells,[1]; Concn .1 μM,+++ (>100% increase)
same,"Effectiveness in protecting OGD RGCs (in words, from Tables 5 and 6)",[2],more effective overall than the unsubstituted compound
"Nc1ccc2[nH]c(Cc3nc4ccc(N)cc4[nH]3)nc2c1 [SNX 898, 5,5′-diamino*]",Percent Increase in Survival over OGD Control Cells,[1]; Concn 0.01 μM,+ (up to 50% increase)
same,Percent Increase in Survival over OGD Control Cells,[1]; Concn 0.1 μM,+ (up to 50% increase)
same,Percent Increase in Survival over OGD Control Cells,[1]; Concn 1 μM,+ (up to 50% increase)
same,Percent Increase in Survival over OGD Control Cells,[1]; Concn 10 μM,—
c1ccc2[nH]c(Cc3nc4ccccc4[nH]3)nc2c1 [SNX 857],Percent Increase in Survival over OGD Control Cells,[1]; Concn 0.01 μM,+ (up to 50% increase)
same,Percent Increase in Survival over OGD Control Cells,[1]; Concn 0.1 μM,+++ (>100% increase)
same,Percent Increase in Survival over OGD Control Cells,[1]; Concn 10 μM,+++ (>100% increase)
same,Percent Increase in Survival over OGD Control Cells,[1]; Concn .1 μM,++ (50%-100% increase)
"N#Cc1ccc2[nH]c(Cc3nc4ccc(C#N)cc4[nH]3)nc2c1 [SNX 931, 5,5′-dicyano*]",Percent Increase in Survival over OGD Control Cells,[1]; Concn 0.001 μM,—
same,Percent Increase in Survival over OGD Control Cells,[1]; Concn 0.01 μM,+ (up to 50% increase)
same,Percent Increase in Survival over OGD Control Cells,[1]; Concn 0.1 μM,+ (up to 50% increase)
same,Percent Increase in Survival over OGD Control Cells,[1]; Concn 1 μM,—
same,Percent Increase in Survival over OGD Control Cells,[1]; Concn 10 μM,++ (50%-100% increase)
"Cn1c(Cc2nc3ccccc3n2C)nc2ccccc21 [SNX 910, 1,1′-dimethyl*]",Percent Increase in Survival over OGD Control Cells,[1]; Concn 0.01 μM,++ (50%-100% increase)
same,Percent Increase in Survival over OGD Control Cells,[1]; Concn 0.1 μM,++ (50%-100% increase)
same,Percent Increase in Survival over OGD Control Cells,[1]; Concn 10 μM,+ (up to 50% increase)
same,Percent Increase in Survival over OGD Control Cells,[1]; Concn .1 μM,+++ (>100% increase)
"NC(c1ncc[nH]1)c1ncc[nH]1 [SNX 949, 2,2′-(aminomethylene)bisimidazole]","Effectiveness in protecting OGD RGCs (in words, from Tables 5 and 6)",[2],very effective
"Clc1ccc2[nH]c(Cc3nc4ccccc4[nH]3)nc2c1 [SNX 899, 5-chloro*]",Percent Increase in Survival over OGD Control Cells,[1]; Concn 0.01 μM,+ (up to 50% increase)
same,Percent Increase in Survival over OGD Control Cells,[1]; Concn 0.1 μM,++ (50%-100% increase)
same,Percent Increase in Survival over OGD Control Cells,[1]; Concn 1 μM,++ (50%-100% increase)
same,Percent Increase in Survival over OGD Control Cells,[1]; Concn 10 μM,+ (up to 50% increase)
same,Percent Increase in Survival over OGD Control Cells,[1]; Concn .1 μM,++ (50%-100% increase)
"O=C(c1ncc[nH]1)c1ncc[nH]1 [SNX 951, di(imidazol-2-yl)methanone]","Effectiveness in protecting OGD RGCs (in words, from Tables 5 and 6)",[2],very effective
"CN1CCN=C1Cc1nc2ccccc2[nH]1 [SNX 1019, 2-(1-methyl-4,5-dihydroimidazol-2-yl)methyl benzimidazole]","Effectiveness in protecting OGD RGCs (in words, from Tables 5 and 6)",[2],very effective
"CC1(C)CN=C(Cc2nc3ccccc3[nH]2)N1 [SNX 1020, 2-(5,5-Dimethyl-4,5-dihydro-1H-imidazol-2-ylmethyl)-1H-benzimidazole]","Effectiveness in protecting OGD RGCs (in words, from Tables 5 and 6)",[2],very effective
"Nc1cccc2[nH]c(Cc3nc4cc(Cl)ccc4[nH]3)nc12 [SNX 923, 2-[(5-Chloro-1H-benzimidazol-2-yl)methyl]-1H-benzimidazol-4-amine]",Percent Increase in Survival over OGD Control Cells,[1]; Concn 0.001 μM,+++ (>100% increase)
same,Percent Increase in Survival over OGD Control Cells,[1]; Concn 0.01 μM,+++ (>100% increase)
same,Percent Increase in Survival over OGD Control Cells,[1]; Concn 0.1 μM,+++ (>100% increase)
same,Percent Increase in Survival over OGD Control Cells,[1]; Concn 1 μM,+++ (>100% increase)
same,Percent Increase in Survival over OGD Control Cells,[1]; Concn 10 μM,+++ (>100% increase)
same,"Effectiveness in protecting OGD RGCs (in words, from Tables 5 and 6)",[2],more effective overall than the unsubstituted compound
"c1ccc2[nH]c(CC3=NCCN3)nc2c1 [SNX 978, 2-(4,5-dihydroimidazol-2-yl)methyl benzimidazole]","Effectiveness in protecting OGD RGCs (in words, from Tables 5 and 6)",[2],very effective
"O=[N+]([O-])c1ccc2[nH]c(Cc3nc4ccc([N+](=O)[O-])cc4[nH]3)nc2c1 [SNX 897, 5,5′-dinitro*]",Percent Increase in Survival over OGD Control Cells,[1]; Concn 0.01 μM,++ (50%-100% increase)
same,Percent Increase in Survival over OGD Control Cells,[1]; Concn 0.1 μM,++ (50%-100% increase)
same,Percent Increase in Survival over OGD Control Cells,[1]; Concn 1 μM,++ (50%-100% increase)
"c1cnc2[nH]c(Cc3nc4cccnc4[nH]3)nc2c1 [SNX 911, 2,2′-methylenebis(4-azabenzimidazole)]","Effectiveness in protecting OGD RGCs (in words, from Tables 5 and 6)",[2],very effective
"c1ccc2[nH]c(CC3=NCCCN3)nc2c1 [SNX 1818, 2-(3,4,5,6-tetrahydropyrimidin-2-yl)methyl benzimidazole]","Effectiveness in protecting OGD RGCs (in words, from Tables 5 and 6)",[2],very effective
CN1CCN=C1CCc1nc2ccccc2n1C [SNX 1771],"Effectiveness in protecting OGD RGCs (in words, from Tables 5 and 6)",[2],very effective
"c1ccc2[nH]c(CC3=NCCCCN3)nc2c1 [SNX 1819, 2-(4,5,6,7-tetrahydro-1,3-diazepin-2-yl)methyl benzimidazole]","Effectiveness in protecting OGD RGCs (in words, from Tables 5 and 6)",[2],very effective
"CC(c1nc2ccccc2[nH]1)c1nc2ccccc2[nH]1 [SNX 925, 2,2′-ethylidenebisbenzimidazole]",Percent Increase in Survival over OGD Control Cells,[1]; Concn 0.001 μM,++ (50%-100% increase)
same,Percent Increase in Survival over OGD Control Cells,[1]; Concn 0.01 μM,+++ (>100% increase)
same,Percent Increase in Survival over OGD Control Cells,[1]; Concn 0.1 μM,+++ (>100% increase)
same,Percent Increase in Survival over OGD Control Cells,[1]; Concn 1 μM,+++ (>100% increase)
same,Percent Increase in Survival over OGD Control Cells,[1]; Concn 10 μM,+++ (>100% increase)
same,"Effectiveness in protecting OGD RGCs (in words, from Tables 5 and 6)",[2],very effective
